Source: patent US20140011839A1, “COMPOSITIONS AND METHODS FOR TREATING AND INHIBITING VIRAL INFECTIONS” (priority 2012, published 2014)

Experiments:
in vitro = conditions: human
Description: (§1) Specifically, in these tests, vectors for expression of an HPV genotype-matched set of viral El and E2 proteins (derived from virus strain HPV-11) along with an HPV ori-containing plasmid were cotransfected into HEK293 cells. […] Low molecular weight DNA was harvested 2 days post-transfection and digested with Dpnl and exonuclease Ill to remove unreplicated transfected plasmid DNA. The replicated DNA was then subjected to real time qPCR (quantitative polymerase chain reaction) analyses in triplicate. Two controls were performed. One was to omit the El expression vector to provide a background amount of undigested and unreplicated DNA. The other, positive control was treatment with the known inhibitor cidofovir, as mentioned above. A toxicity assay based upon cell viability at the time of harvest on day 2 was performed alongside each transient replication assay in 293 cells. The test compounds were added 4 hours post transfection for a total exposure of 44 hours. More than 1×10^5 cells were scored in a BioRad Automatic Cell Counter, with a determination of the total numbers, the numbers of trypan blue stained (dead) cells, and the % of dead cells.

HPV-11 = assay: HPV transient replication assay (E1/E2 expression vectors plus ori plasmid, qPCR of replicated DNA); format: cell-based, human papillomavirus; conditions: for SI90 (CC50/EC90): selectivity index
Description: as §1

SMILES | CC50 at 44 h (in vitro) [µM] | EC90 (HPV-11; Human papillomavirus, HPV-11 E1/E2 + ori plasmid in HEK293 cells, compounds tested at 1, 10, 100 μM, 44 hours exposure, read-out: EC90 (concentration that reduces viral replication by 90%)) [µM] | SI90 (CC50/EC90) (HPV-11)
Nc1ccn(C[C@@H](CO)OCP(=O)(O)O)c(=O)n1 [Cidofovir, cidofovir] | > 200 | > 200 | 1
CCN(CC)Cc1cc(Nc2ccnc3cc(Cl)ccc23)ccc1O [Amodiaquine, amodiaquine] | > 100 | – | >2
